Source: ChEMBL document CHEMBL3507680, “University of Dundee, Gates Library screen for HepG2 cell viability”

Experiment: Human HepG2 cell viability assay in 384 well format
Format: toxicity, cell-based
Set-up: dose 125 nL, time 70.5 hour; cytotoxicity at 70.5 h: concentration not given beside the values
Details: HepG2 cells, read-out: Inhibition

SMILES	cytotoxicity at 70.5 h [%]
Cn1ccc(C2CCCCN2C(=O)c2cccc(-n3cccn3)c2)n1 (stereo unspecified)	10.7
CS(=O)(=O)CCC(=O)N1C[C@@H]2CC[C@H](C1)N(Cc1ccccc1)C2=O	-8.53
Cc1ccc(CN2CCN(c3ccc(F)cn3)CC2=O)cc1C	-3.51
COCCN1C[C@@H](C(=O)O)[C@H](c2ccccc2C)C1	31.8
Cc1nn(C)c2ncnc(N3CCCC(C)(O)C3)c12 (stereo unspecified)	-6.93
CCN1CCc2[nH]cnc2C12CCN(c1ccc(Cl)c(C(=O)O)n1)CC2	-2.9
Cc1cc2c(cc1CN1CCCCC1CCn1ccnc1C)OCO2 (stereo unspecified)	-1.13
CCc1ccccc1NC(=O)c1cccc(N(C)S(C)(=O)=O)c1C	-4.65
Cc1ccccc1C(=O)Nc1ccc(OC2CCN(C)CC2)cc1	-4.55
O=C1COc2cc(C(=O)NS(=O)(=O)c3cccc(Cl)c3)ccc2N1	-19.1
CCc1ncc2c(n1)CN(Cc1nc(-c3ccoc3)no1)CC2	-3.42
Cn1ccnc1CN1CCCN(C(=O)c2cccc(CC#N)c2)CC1	11.5
COc1c(CNC2CCCN(c3ncccn3)C2)c(C(C)C)nn1C (stereo unspecified)	18.4
Cn1ccnc1CN1CCCN(C(=O)c2ccc3c(c2)OCO3)CC1	-6.18
CC(C(=O)N1CCCN(c2ncccc2C#N)CC1)n1cncn1 (stereo unspecified)	-12.1
CCN(c1ccc(C(=O)N2CCCC2c2cnn(C)c2)cn1)C(C)C (stereo unspecified)	16.2
CC(=O)N1CCCN(C(=O)NCc2ccc(-c3ccn[nH]3)cc2)CC1	-4.56
Cc1ccc(OCCN(C)Cc2nc3c(cnn3C)c(=O)[nH]2)cc1	-8.39
COc1ccc(OCCN(C)Cc2nc3c(cnn3C)c(=O)[nH]2)cc1	-3.93

SMILES	cytotoxicity at 70.5 h [%]
CS(=O)(=O)NC1CCN(C(=O)NCc2cc[nH]n2)CC1	-8.42
CC(=O)NC1CCCN(C(=O)NCc2cc[nH]n2)C1 (stereo unspecified)	-1.94
CNC(=O)C1CCN(C(=O)NCc2ccc(-c3ccn[nH]3)cc2)CC1	-3.31
CNC(=O)NC(=O)CN1CCN(c2ccc(C(=O)OC)cc2)CC1C (stereo unspecified)	-7.85
Cc1ncc2c(n1)CN(CC(=O)Nc1c(C)nn(C)c1C)CC2	-1.17
Cc1nn(C)c(C)c1CC(=O)N1CCCC(n2ccnc2C)C1 (stereo unspecified)	-2.12
CN(CC(=O)Nc1cccnc1)C1CCCN(c2cccnn2)C1 (stereo unspecified)	31.2
CCN1CC(C(=O)NCCOc2ccc3c(c2)OCO3)CC1=O (stereo unspecified)	-1.5
CS(=O)(=O)NCC1CCCCN1C(=O)c1cccc(C(F)(F)F)c1 (stereo unspecified)	-0.142
Cn1ncc2c(=O)[nH]c(CN3CCCC3Cc3ccc(F)cc3)nc21 (stereo unspecified)	1.17
NC(=O)NCC1CCCCN1C(=O)c1cc(F)cc(F)c1 (stereo unspecified)	-2.44
O=C(CCc1ccsc1)N1CCC(Nc2cccnn2)CC1	-3.07
CCc1nc2n(n1)CC(NCc1cnc(-c3ccccc3)nc1)CC2 (stereo unspecified)	29.3
Cc1ccc(-c2nc(CNC3CCc4ncnn4C3)no2)cc1 (stereo unspecified)	-1.3
CCc1nc2n(n1)CC(NCc1noc(-c3ccc(C)cc3)n1)CC2 (stereo unspecified)	0.731
Cc1nccn1C1CCCN(C(=O)c2ccc3c(c2)CCC3)C1 (stereo unspecified)	0.881
Cc1nnc(NC(=O)CN(C)C2CCCN(c3cccnn3)C2)s1 (stereo unspecified)	1.26
COc1ccc(-c2nc(CNC3CCc4nc(C)nn4C3)no2)cc1 (stereo unspecified)	-3.37
COCCCNC(=O)CN(C)C1CCCN(c2cccnn2)C1 (stereo unspecified)	-6.82

SMILES	cytotoxicity at 70.5 h [%]
O=C(CCOc1ccccc1F)N1CCCC1Cn1cccn1 (stereo unspecified)	0.51
O=C(CCNc1ncccn1)N1CCC(Nc2cccnn2)CC1	-2.9
CCCc1n[nH]c(C2CN(C(=O)c3ccc[nH]3)CCO2)n1 (stereo unspecified)	-3.89
CCCc1n[nH]c(C2CN(C(=O)c3cccc4cn[nH]c34)CCO2)n1 (stereo unspecified)	-5.95
Cc1cnn(-c2ccc(C(=O)N3CCCC(n4ccnc4C)C3)cc2)c1 (stereo unspecified)	-4.35
CCCc1nc(CN2CCOC(Cn3cncn3)C2)cs1 (stereo unspecified)	22.5
CCCN1CCC(CNC(=O)C2(c3ccccc3)CCC2)C1 (stereo unspecified)	18.5
CCc1nnc2n1CCN(C(=O)CN(CC)CC)C2	44.6
Cc1cnn(CC2CN(Cc3csc(C4CCCC4)n3)CCO2)c1 (stereo unspecified)	-0.185
CC(C)c1nnc2n1CCN(C(=O)CN(C)Cc1ccccc1)C2	-1.56
COc1cc(C(=O)N(Cc2cnn(C)c2)C(C)C)ccc1C	-1.26
CCOc1cc(C(=O)N2CCCC(n3nc(C)nc3C)C2)ccn1 (stereo unspecified)	-3.74
CN(C)S(=O)(=O)c1ccc(CN2CCCC2c2ccsc2)o1 (stereo unspecified)	-7.08
CN(C)C(=O)CS(=O)(=O)Cc1cc(Cl)c2c(c1)OCCO2	3.21
CC(NC(=O)NCC1(c2ccc(F)cc2)CC1)c1nncn1C (stereo unspecified)	-1.68
COc1cc(C(=O)N(Cc2cnn(C)c2)C(C)C)ccc1OC(C)C	3.17
Cc1cc(C)cc(C2(C(=O)NCC3CCN(CC(F)(F)F)C3)CC2)c1 (stereo unspecified)	-2.93
COc1cccc(CNC(C)C)c1OCc1ccc(C)cc1	-3.04
